The values that follow come from patent publication US5401739A, “Benzothiadiazine derivatives” (Taiho Pharmaceutical Co. Ltd., priority 1991, dated 1995).

Data set [1] deals with gastric acid secretion. Kind of data set: Inhibitory activity on gastric acid secretion, comparison with Compound A (Pharmacological Test 3). Type of data set: in vivo, Male Wistar rats. To be noted: 30 mg/kg; for Percent inhibition on gastric acid secretion: Table 7, intraduodenal as in Test 1. The procedure:
(§1) Male Wistar rats (weighing 172 to 200 g) were divided into groups, 7 to 8 rats in each group. The animals were fasted for 24 hours. Under ether anesthesia, the abdomen was incised and the pylorus was ligated according to the method of Shay et al. [Gastroenterology, 1, 420 (1963)]. The animals were sacrificed 4 hours later, and the stomach was removed to collect gastric juice, which was then centrifuged (3000 r.p.m., 10 minutes). The volume of gastric juice and the acidity were measured. The compound to be tested was dissolved in water, and the solution was intraduodenally given to animals at varying doses immediately after the ligation of the pylorus.
Inhibitory activity on gastric acid secretion was measured in the same manner as in Pharmacological Test 1 with use of Compound 2 below as the present compound and, for comparison, Compound A below of Example 37c in JP-A-116277/1984.

For data set [2], the system named is hydrochloric acid induced-ulcer. Kind of data set: Effect on hydrochloric acid induced-ulcer (Pharmacological Test 2). Type of data set: in vivo, Male Wistar rats. The conditions noted are these: 1 h before 0.6N HCl. The method, then: Effect on hydrochloric acid induced-ulcer:
(§2) Male Wistar rats (weighing 156 to 189 g) were divided into groups, 5 to 8 rats in each group. The animals were fasted for 24 hours, and 5 ml/kg of 0.6N hydrochloric acid was given orally. The animals were sacrificed 1 hour later. The stomach was removed, and 1% formalin was injected into the removed stomach to fix the stomach. The stomach was then incised open along the greater curvature. The length (mm) of gastric lesions was measured, summed and used as an ulcer index. The compound to be tested was dissolved in water, and the solution was orally given to animals at varying doses 1 hour before the injection of hydrochloric acid.

Data set [3] relates to gastric acid secretion. Kind of data set: Inhibitory activity on gastric acid secretion (pylorus ligation, Pharmacological Test 1). It counts as in vivo, Male Wistar rats. The procedure:
Inhibitory activity on gastric acid secretion:
as §1

For data set [4], the system named is hydrochloric acid induced-ulcer. Kind of data set: Effect on hydrochloric acid induced-ulcer, comparison with Compound A (Pharmacological Test 4). Type of data set: in vivo, Male Wistar rats. The conditions noted are these: 30 mg/kg; for Percent inhibition of effect on hydrochloric acid induced-ulcer: Table 8, oral as in Test 2. The method, then: as §2
Data set [5] is described as follows: Hygroscopicity (remark in Table 1). It counts as physicochemical.
Where [6] appears, read: Table 3, 10 mg/kg intraduodenal, 4 h, control 2.5 ± 0.5.
[7] abbreviates: Table 3, 10 mg/kg intraduodenal, 4 h, control 65.2 ± 10.7.
[8] abbreviates: Table 3, 10 mg/kg intraduodenal, 4 h, control 162.3 ± 41.6.

Consider `COc1ccc(CN(CCCOc2cccc(CN3CCCCC3)c2)C2=NS(=O)(=O)c3ccccc3N2C)cc1` [Compound 2, 3-[N-[3-[3-(piperidinomethyl)phenoxy]propyl]-4'-methoxybenzylamino]-4-methyl-1,2,4-benzothiadiazine-1,1-dioxide], for which the “Percent inhibition on gastric acid secretion” value in data set [1] is 95.1%. The “inhibitory activity on gastric acid secretion, compared with Compound A” value in data set [1] (in words, vs Compound A) is given as “almost equal to Compound A”. Besides, the “Percent inhibition (ulcer index)” value was 33.6% in data set [2] (Table 4, 3 mg/kg oral); 55.8% in data set [2] (Table 4, 10 mg/kg oral); 85.0% in data set [2] (Table 4, 30 mg/kg oral); 94.5% in data set [2] (Table 4, 100 mg/kg oral). In addition, the Ulcer index in data set [2] (Table 4, 3 mg/kg oral, control 72.7 ± 23.7) is 48.3 ± 17.8 mm; in data set [2] (Table 4, 10 mg/kg oral, control 72.7 ± 23.7) it was 32.1 ± 24.9 mm; in data set [2] (Table 4, 30 mg/kg oral, control 72.7 ± 23.7) it was 10.9 ± 17.2 mm; in data set [2] (Table 4, 100 mg/kg oral, control 72.7 ± 23.7), 4.0 ± 6.1 mm. Besides, the Acidity in data set [3] (Table 2, 3 mg/kg intraduodenal, 4 h, control 78.4 ± 12.0) came to 64.8 ± 15.1 μ Eq/ml; in data set [3] (Table 2, 10 mg/kg intraduodenal, 4 h, control 78.4 ± 12.0), 54.9 ± 16.1 μ Eq/ml; in data set [3] (Table 2, 30 mg/kg intraduodenal, 4 h, control 78.4 ± 12.0), 30.9 ± 16.7 μ Eq/ml. Further, the Total acid output was determined as 247.8 ± 96.9 μ Eq in data set [3] (Table 2, 3 mg/kg intraduodenal, 4 h, control 391.6 ± 161.6); 205.9 ± 165.0 μ Eq in data set [3] (Table 2, 10 mg/kg intraduodenal, 4 h, control 391.6 ± 161.6); 85.3 ± 92.7 μ Eq in data set [3] (Table 2, 30 mg/kg intraduodenal, 4 h, control 391.6 ± 161.6). The “Volume of gastric juice” value is 3.7 ± 0.9 mL in data set [3] (Table 2, 3 mg/kg intraduodenal, 4 h after pylorus ligation, control 4.8 ± 1.5); 3.4 ± 1.8 mL in data set [3] (Table 2, 10 mg/kg intraduodenal, 4 h, control 4.8 ± 1.5); 2.4 ± 1.4 mL in data set [3] (Table 2, 30 mg/kg intraduodenal, 4 h, control 4.8 ± 1.5). Besides, the “Percent inhibition of effect on hydrochloric acid induced-ulcer” value in data set [4] is reported as 86.9%. Also, the “effect on hydrochloric acid induced-ulcer, compared with Compound A” value in data set [4] (in words, vs Compound A) is given as “extremely excellent than Compound A”.

In the case of `CCCCN1C(NC/C=C\COc2cccc(CN3CCCCC3)c2)=NS(=O)(=O)c2ccccc21` [Compound 28], the “Percent inhibition (ulcer index)” value in data set [2] (Table 6, 10 mg/kg oral) was 22.6%; in data set [2] (Table 6, 30 mg/kg oral) it was 62.8%; in data set [2] (Table 6, 100 mg/kg oral) it was 96.6%. In addition, the Ulcer index was found to be 116.1 ± 34.9 mm in data set [2] (Table 6, 10 mg/kg oral, control 150.0 ± 35.2); 55.8 ± 32.4 mm in data set [2] (Table 6, 30 mg/kg oral, control 150.0 ± 35.2); 5.1 ± 4.1 mm in data set [2] (Table 6, 100 mg/kg oral, control 150.0 ± 35.2). For the same molecule, the “Volume of gastric juice” value in data set [3] (setting [6]) worked out at 2.2 ± 0.8 mL; in data set [3] (Table 3, 30 mg/kg intraduodenal, 4 h, control 2.5 ± 0.5), 1.5 ± 0.5 mL; in data set [3] (Table 3, 100 mg/kg intraduodenal, 4 h, control 2.5 ± 0.5), 1.1 ± 0.5 mL. Also, the Acidity was 59.2 ± 12.4 μ Eq/ml in data set [3] (setting [7]); 32.0 ± 14.4 μ Eq/ml in data set [3] (Table 3, 30 mg/kg intraduodenal, 4 h, control 65.2 ± 10.7); 4.9 ± 8.2 μ Eq/ml in data set [3] (Table 3, 100 mg/kg intraduodenal, 4 h, control 65.2 ± 10.7). Further, the Total acid output in data set [3] (setting [8]) is 133.3 ± 69.0 μ Eq; in data set [3] (Table 3, 30 mg/kg intraduodenal, 4 h, control 162.3 ± 41.6), 53.6 ± 32.9 μ Eq; in data set [3] (Table 3, 100 mg/kg intraduodenal, 4 h, control 162.3 ± 41.6) it was 4.6 ± 7.1 μ Eq.

Consider `CN1C(NCCCOc2cccc(CN3CCCCC3)c2)=NS(=O)(=O)c2ccccc21` [Compound A, reference compound], for which, in data set [1], the “Percent inhibition on gastric acid secretion” value was 96.2%. In addition, the “Percent inhibition of effect on hydrochloric acid induced-ulcer” value in data set [4] amounted to 59.4%.

On to `COc1ccc2c(c1)N(C)C(NC/C=C\COc1cccc(CN3CCCCC3)c1)=NS2(=O)=O` [Compound 29, 3-[N-[4-[3-(piperidinomethyl)phenoxy]-(cis) 2-butenyl]amino]-4-methyl-6-methoxy-1,2,4-benzothiadiazine-1,1-dioxide], for which the Hygroscopicity entry in data set [5] was “Hygroscopic”.

On to `CN1C(NC/C=C\COc2cccc(CN3CCCCC3)c2)=NS(=O)(=O)c2ccccc21` [Compound 22, 3-[N-[4-[3-(piperidinomethyl)phenoxy]-(cis) 2-butenyl]amino]-4-methyl-1,2,4-benzothiadiazine-1,1-dioxide], for which the “Percent inhibition (ulcer index)” value in data set [2] (Table 5, 10 mg/kg oral) was determined as 16.5%; in data set [2] (Table 5, 30 mg/kg oral), 35.6%; in data set [2] (Table 5, 100 mg/kg oral) it was 48.4%. Further, the Ulcer index in data set [2] (Table 5, 10 mg/kg oral, control 61.2 ± 25.4) is on record as 51.1 ± 20.4 mm; in data set [2] (Table 5, 30 mg/kg oral, control 61.2 ± 25.4) it was 39.4 ± 13.2 mm; in data set [2] (Table 5, 100 mg/kg oral, control 61.2 ± 25.4) it was 31.6 ± 5.0 mm. Further, the “Volume of gastric juice” value was 2.0 ± 0.6 mL in data set [3] (Table 3, 3 mg/kg intraduodenal, 4 h, control 2.5 ± 0.5) and 2.3 ± 1.0 mL in data set [3] (setting [6]). The Acidity in data set [3] (Table 3, 3 mg/kg intraduodenal, 4 h, control 65.2 ± 10.7) came out at 8.6 ± 8.2 μ Eq/ml; in data set [3] (setting [7]), 2.1 ± 3.9 μ Eq/ml. Further, the Total acid output in data set [3] (Table 3, 3 mg/kg intraduodenal, 4 h, control 162.3 ± 41.6) is reported as 15.5 ± 9.6 μ Eq; in data set [3] (setting [8]), 4.5 ± 9.4 μ Eq.
